Measured values as given in the supplement of paper PMC10307832.

What was measured:
Test in all cases: relative viability (nuclei count vs DMSO), 5 days (fraction); higher = more cells survive
CAL-12T = system: CAL-12T
Outline: (§1)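 The day after seeding in 1536-well plates, lung cancer cell lines were treated by pin tool with a single drug, or with a fixed anchor-drug dose together with five library-drug doses (not always all listed) in √10 steps. After 5 days, a combined fix-and-stain solution (final 0.05% Triton X-100, 1% formaldehyde, 1 ug/ml Hoechst) was added. Nuclei counted on 4× images gave relative viability as treated counts over vehicle counts, reported as the median of duplicate plates.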

COR-L 105 = system: COR-L 105
Outline: as §1

EKVX = system: EKVX
Outline: as §1

EMC-BAC-2 = system: EMC-BAC-2
Outline: as §1

H3255 = system: H3255
Outline: as §1

LC-2-ad = system: LC-2-ad
Outline: as §1

LK-2 = system: LK-2
Outline: as §1

LXF-289 = system: LXF-289
Outline: as §1

NCI-H1395 = system: NCI-H1395
Outline: as §1

NCI-H1437 = system: NCI-H1437
Outline: as §1

NCI-H1651 = system: NCI-H1651
Outline: as §1

NCI-H1755 = system: NCI-H1755
Outline: as §1

NCI-H1793 = system: NCI-H1793
Outline: as §1

NCI-H1915 = system: NCI-H1915
Outline: as §1

NCI-H1944 = system: NCI-H1944
Outline: as §1

NCI-H2085 = system: NCI-H2085
Outline: as §1

NCI-H2087 = system: NCI-H2087
Outline: as §1

NCI-H2228 = system: NCI-H2228
Outline: as §1

NCI-H2347 = system: NCI-H2347
Outline: as §1

NCI-H661 = system: NCI-H661
Outline: as §1

PC-3 [JPC-3] = system: PC-3 [JPC-3]
Outline: as §1

SK-LU-1 = system: SK-LU-1
Outline: as §1

SK-MES-1 = system: SK-MES-1
Outline: as §1

In the case of `O=C(O)CCCCC(CCSCc1ccccc1)SCc1ccccc1` (stereo not drawn) [CPI-613] + CC(=O)c1c(C)c2cnc(Nc3ccc(N4CCNCC4)cn3)nc2n(C2CCCC2)c1=O [Palbociclib] (partner 0.5 µM), the relative viability (CAL-12T; first compound 5 µM) is reported as 0.321, the relative viability (CAL-12T; first compound 15.81 µM) is reported as 0.283 and the relative viability (CAL-12T; first compound 50 µM) is reported as 0.461. For the same molecule, the relative viability (CAL-12T; first compound 158.11 µM) was 0.0907, the relative viability (CAL-12T; first compound 500 µM) was 0.0203 and the relative viability (COR-L 105; first compound 5 µM) was 0.423. The relative viability (COR-L 105; first compound 15.81 µM) was 0.441, the relative viability (COR-L 105; first compound 50 µM) was 0.379 and the relative viability (COR-L 105; first compound 158.11 µM) was 0.294. It also gave a relative viability (COR-L 105; first compound 500 µM) of 0.26, a relative viability (EKVX; first compound 5 µM) of 0.372 and a relative viability (EKVX; first compound 15.81 µM) of 0.449. It also gave a relative viability (EKVX; first compound 50 µM) of 0.404, a relative viability (EKVX; first compound 500 µM) of 0.378 and a relative viability (EMC-BAC-2; first compound 5 µM) of 0.524. For the same molecule, the relative viability (EMC-BAC-2; first compound 15.81 µM) was 0.506, the relative viability (EMC-BAC-2; first compound 50 µM) was 0.514 and the relative viability (EMC-BAC-2; first compound 158.11 µM) was 0.267. It also gave a relative viability (EMC-BAC-2; first compound 500 µM) of 0.265, a relative viability (H3255; first compound 5 µM) of 0.296 and a relative viability (H3255; first compound 15.81 µM) of 0.302. For the same molecule, the relative viability (H3255; first compound 50 µM) was 0.339, the relative viability (H3255; first compound 158.11 µM) was 0.328 and the relative viability (H3255; first compound 500 µM) was 0.302. For the same molecule, the relative viability (LC-2-ad; first compound 5 µM) was 0.446, the relative viability (LC-2-ad; first compound 15.81 µM) was 0.472 and the relative viability (LC-2-ad; first compound 50 µM) was 0.489. The relative viability (LC-2-ad; first compound 158.11 µM) was 0.24, the relative viability (LC-2-ad; first compound 500 µM) was 0.168 and the relative viability (LK-2; first compound 5 µM) was 0.766. For the same molecule, the relative viability (LK-2; first compound 15.81 µM) was 0.684, the relative viability (LK-2; first compound 50 µM) was 0.726 and the relative viability (LK-2; first compound 158.11 µM) was 0.532. It also gave a relative viability (LK-2; first compound 500 µM) of 0.547, a relative viability (LXF-289; first compound 5 µM) of 0.561 and a relative viability (LXF-289; first compound 15.81 µM) of 0.59. It also gave a relative viability (LXF-289; first compound 50 µM) of 0.558, a relative viability (LXF-289; first compound 158.11 µM) of 0.509 and a relative viability (LXF-289; first compound 500 µM) of 0.393. For the same molecule, the relative viability (NCI-H1395; first compound 5 µM) was 0.619, the relative viability (NCI-H1395; first compound 15.81 µM) was 0.641 and the relative viability (NCI-H1395; first compound 50 µM) was 0.601. The relative viability (NCI-H1395; first compound 158.11 µM) was 0.57, the relative viability (NCI-H1395; first compound 500 µM) was 0.486 and the relative viability (NCI-H1437; first compound 5 µM) was 0.284. For the same molecule, the relative viability (NCI-H1437; first compound 15.81 µM) was 0.281, the relative viability (NCI-H1437; first compound 50 µM) was 0.292 and the relative viability (NCI-H1437; first compound 158.11 µM) was 0.0875. For the same molecule, the relative viability (NCI-H1437; first compound 500 µM) was 0.026, the relative viability (NCI-H1651; first compound 5 µM) was 0.51 and the relative viability (NCI-H1651; first compound 15.81 µM) was 0.466. For the same molecule, the relative viability (NCI-H1651; first compound 50 µM) was 0.487, the relative viability (NCI-H1651; first compound 158.11 µM) was 0.46 and the relative viability (NCI-H1651; first compound 500 µM) was 0.514. It also gave a relative viability (NCI-H1755; first compound 5 µM) of 0.513, a relative viability (NCI-H1755; first compound 15.81 µM) of 0.432 and a relative viability (NCI-H1755; first compound 50 µM) of 0.454. For the same molecule, the relative viability (NCI-H1755; first compound 158.11 µM) was 0.448, the relative viability (NCI-H1755; first compound 500 µM) was 0.393 and the relative viability (NCI-H1793; first compound 5 µM) was 0.269. It also gave a relative viability (NCI-H1793; first compound 15.81 µM) of 0.33, a relative viability (NCI-H1793; first compound 50 µM) of 0.258 and a relative viability (NCI-H1793; first compound 158.11 µM) of 0.112. It also gave a relative viability (NCI-H1793; first compound 500 µM) of 0.0566, a relative viability (NCI-H1915; first compound 5 µM) of 0.5 and a relative viability (NCI-H1915; first compound 15.81 µM) of 0.494. It also gave a relative viability (NCI-H1915; first compound 50 µM) of 0.506, a relative viability (NCI-H1915; first compound 158.11 µM) of 0.23 and a relative viability (NCI-H1915; first compound 500 µM) of 0.0812. It also gave a relative viability (NCI-H1944; first compound 5 µM) of 0.331, a relative viability (NCI-H1944; first compound 15.81 µM) of 0.312 and a relative viability (NCI-H1944; first compound 50 µM) of 0.335. It also gave a relative viability (NCI-H1944; first compound 158.11 µM) of 0.259, a relative viability (NCI-H1944; first compound 500 µM) of 0.26 and a relative viability (NCI-H2085; first compound 5 µM) of 0.447. For the same molecule, the relative viability (NCI-H2085; first compound 15.81 µM) was 0.47, the relative viability (NCI-H2085; first compound 50 µM) was 0.456 and the relative viability (NCI-H2085; first compound 158.11 µM) was 0.391. The relative viability (NCI-H2085; first compound 500 µM) was 0.191, the relative viability (NCI-H2087; first compound 5 µM) was 0.253 and the relative viability (NCI-H2087; first compound 15.81 µM) was 0.197. For the same molecule, the relative viability (NCI-H2087; first compound 50 µM) was 0.19, the relative viability (NCI-H2087; first compound 158.11 µM) was 0.0923 and the relative viability (NCI-H2087; first compound 500 µM) was 0.0098. The relative viability (NCI-H2228; first compound 5 µM) was 0.693, the relative viability (NCI-H2228; first compound 15.81 µM) was 0.622 and the relative viability (NCI-H2228; first compound 50 µM) was 0.679. The relative viability (NCI-H2228; first compound 158.11 µM) was 0.45, the relative viability (NCI-H2228; first compound 500 µM) was 0.0679 and the relative viability (NCI-H2347; first compound 5 µM) was 0.434. For the same molecule, the relative viability (NCI-H2347; first compound 15.81 µM) was 0.379, the relative viability (NCI-H2347; first compound 50 µM) was 0.404 and the relative viability (NCI-H2347; first compound 158.11 µM) was 0.392. For the same molecule, the relative viability (NCI-H2347; first compound 500 µM) was 0.22, the relative viability (NCI-H661; first compound 5 µM) was 0.404 and the relative viability (NCI-H661; first compound 15.81 µM) was 0.374. It also gave a relative viability (NCI-H661; first compound 50 µM) of 0.387, a relative viability (NCI-H661; first compound 158.11 µM) of 0.24 and a relative viability (NCI-H661; first compound 500 µM) of 0.132. For the same molecule, the relative viability (PC-3 [JPC-3]; first compound 5 µM) was 0.559, the relative viability (PC-3 [JPC-3]; first compound 50 µM) was 0.512 and the relative viability (PC-3 [JPC-3]; first compound 158.11 µM) was 0.265. It also gave a relative viability (PC-3 [JPC-3]; first compound 500 µM) of 0.263, a relative viability (SK-LU-1; first compound 5 µM) of 0.422 and a relative viability (SK-LU-1; first compound 15.81 µM) of 0.392. It also gave a relative viability (SK-LU-1; first compound 50 µM) of 0.276, a relative viability (SK-LU-1; first compound 158.11 µM) of 0.32 and a relative viability (SK-LU-1; first compound 500 µM) of 0.202. For the same molecule, the relative viability (SK-MES-1; first compound 5 µM) was 0.305, the relative viability (SK-MES-1; first compound 15.81 µM) was 0.279 and the relative viability (SK-MES-1; first compound 50 µM) was 0.277. It also gave a relative viability (SK-MES-1; first compound 158.11 µM) of 0.14 and a relative viability (SK-MES-1; first compound 500 µM) of 0.145.
